Measurements published in patent US4264625A, “Pesticidal unsymmetrical bis-arylcarbamate sulfide compounds” (Union Carbide Corporation, priority 1978, dated 1981).

Legend:
Type in all cases: in vivo
[1] = system: two-spotted mite (Tetranychus urticae Koch); test: Mite Foliage Spray Test; parameters: key: A: excellent control; B: partial control; C: no control; conditions: 500 ppm foliage spray, six days, mortality rating
Procedure: (§1) Suspensions of the test compounds were prepared by dissolving one gram of compound in 50 milliliters of acetone in which had been dissolved 0.1 gram (10 percent of the weight of compound) of an alkylphenoxy polyethoxyethanol surfactant, as an emulsifying or dispersing agent. The resulting solution was mixed into 150 milliliters of water to give roughly 200 milliliters of a suspension containing the compound in finely divided form. The thus-prepared stock suspension contained 0.5 percent by weight of compound. The test concentrations in parts per million by weight employed in the tests described hereinbelow were obtained by appropriate dilutions of the stock suspension with water. The test procedures were as follows:
Adults and nymphal stages of the two-spotted mite (Tetranychus urticae Koch), reared on Tendergreen bean plants at 80±5 percent relative humidity, were the test organisms. Infested leaves from a stock culture were placed on the primary leaves of two bean plants six to eight inches in height, growing in a two-and-a-half inch clay pot. 150-200 Mites, a sufficient number for testing, transferred from the excised leaves to the fresh plants in a period of twenty four hours. Following the twenty four hour transfer period, the excised leaves were removed from the infested plants. The test compounds were formulated by diluting the stock suspension with water to give a suspension containing 500 parts of test compound per million parts of final formulation. The potted plants (one pot per compound) were placed on a revolving turntable and sprayed with 100-110 milliliters of test compound formulation by use of a DeVilbiss spray gun set at 40 psig. air pressure. This application, which lasted 25 seconds, was sufficient to wet the plants to run-off. As a control, 100-110 milliliters of a water solution containing acetone and emulsifier in the same concentrations as the test compound formulation, but containing no test compound, were also sprayed on infested plants. The sprayed plants were held at 80±5 percent relative humidity for six days, after which a mortality count of motile forms was made. Microscopic examination for motile forms was made on the leaves of the test plants. Any individual which was capable of locomotion upon prodding was considered living.
(§2) In these tests the pesticidal activity of the compounds against aphid, mite, Southern Armyworm, Bean Beetle and house fly was rated as follows: […]

[2] = system: house flies (Musca domestica, L.); test: Fly Bait Test; parameters: key: A: excellent control; B: partial control; C: no control; conditions: 500 ppm in sugar-solution bait, 24 hours, mortality rating
Procedure: as §1
Four to six day old adult house flies (Musca domestica, L.) reared according to the specifications of the Chemical Specialties Manufacturing Association (Blue Book, McNair-Dorland Co., N.Y. 1954; pages 243-244, 261) under controlled conditions of 80°±5° F. and 50±5 percent relative humidity, were the test insects. The flies were immobilized by anesthetizing with carbon dioxide and twenty five immobilized individuals, males and females, were transferred to a cage consisting of a standard food strainer about five inches in diameter which was inverted over a wrapping-paper-covered surface. The test compounds were formulated by diluting the stock suspension with a 10 percent (by weight) sugar solution to give a suspension containing 500 parts of test compound per million parts of final formulation, by weight. Ten milliliters of the test formulation were added to a souffle cup containing a one-inch square of an absorbent cotton pad. This bait cup was introduced and centered on the blotting paper under the food strainer prior to admitting the anesthetized flies. The caged flies were allowed to feed on the bait for twenty four hours, at a temperature of 80°±5° F. and the relative humidity of 50±5 percent.
as §2

[3] = system: southern armyworm (Prodenia eridania, (Cram.)); test: Southern Armyworm Leaf Spray Test; parameters: key: A: excellent control; B: partial control; C: no control; conditions: 500 ppm leaf spray, larvae, three days, mortality rating
Procedure: as §1
Southern Armyworm Leaf Spray Test
Larvae of the southern armyworm (Prodenia eridania, (Cram.)), reared on Tendergreen bean plants at a temperature of 80°±5° F. and a relative humidity of 50±5 percent, constituted the test insects.
The test compounds were formulated by diluting the stock suspension with water to give a suspension containing 500 parts of test compound per million parts of final formulation. Potted Tendergreen bean plants of standard height and age were placed on a revolving turntable and sprayed with 100-110 milliliters of test compound formulation by use of a DeVilbiss spray gun set at 10 psig air pressure. This application, which lasted 25 seconds, was sufficient to wet plants to run-off. As a control, 100-110 milliliters of a water-acetone-emulsifier solution containing no test compound were also sprayed on infested plants. When dry, the paired leaves were separated and each one was placed in a 9 centimeter Petri dish lined with moistened filter paper. Five randomly selected larvae were introduced into each dish and the dishes were closed. The closed dishes were labeled and held at 80°-85° F. for three days. Although the larvae could easily consume the whole leaf within twenty-four hours, no more food was added. Larvae which were unable to move the length of the body, even upon stimulation by prodding, were considered dead. Percent mortality was recorded for various concentration levels.
as §2

[4] = system: Mexican bean beetle (Epilachna varivestis, Muls.); test: Mexican Bean Beetle Leaf Spray Test; parameters: key: A: excellent control; B: partial control; C: no control; conditions: 500 ppm leaf spray, fourth instar larvae, three days, mortality rating
Procedure: as §1
Mexican Bean Beetle Leaf Spray Test
Fourth instar larvae of the Mexican bean beetle (Epilachna varivestis, Muls.), reared on Tendergreen bean plants at a temperature of 80°±5° F. and 50±5 percent relative humidity, were the test insects.
The test compounds were formulated by diluting the stock suspension with water to give a suspension containing 500 parts of test compound per million parts of final formulation. Potted Tendergreen bean plants of standard height and age were placed on a revolving turntable and sprayed with 100-110 milliliters of test compound formulation by use of a DeVilbiss spray gun set at 10 psig air pressure. This application, which lasted 25 seconds, was sufficient to wet plants to run-off. As a control, 100-110 milliliters of a water-acetone-emulsifier solution containing no test compound were also sprayed on infested plants. When dry, the paired leaves were separated and each was placed in a 9 centimeter Petri dish lined with moistened filter paper. Five randomly selected larvae were introduced into each dish, and the dishes were closed. The closed dishes were labeled and held at a temperature of 80°±5° F. for three days. Although the larvae could easily consume the leaf within 24 to 48 hours, no more food was added. Larvae which were unable to move the length of the body, even upon stimulation, were considered dead.
as §2

Bean = conditions: 2500 ppm spray, ten days, rating 1-5
Procedure: (§3) POST-EMERGENT HERBICIDAL TEST
(§4) Experiments were also conducted to determine the phytotoxicity of representative compositions with respect to healthy fresh plants. Solutions of the compounds were prepared as described above to provide a concentration of 2500 parts per million of the test compound. The test plants were sprayed in accordance with the procedure described above for the Mite Foliage Spray Test so as to deliver approximately 100 milliliters of test solution to the leaves of each plant tested. The sprayed plants and controls were set aside for approximately one hour to allow the solutions to dry and were then placed in the greenhouse. After ten days the plants were visually inspected to determine the extent of foliage injury. A rating of 1 indicates no perceptible injury; 5 indicates the plant was dead and ratings of 2, 3 and 4 indicate intermediate degrees of injury based upon the number and extent to which leaves were injured.

Cotton = conditions: 2500 ppm spray, ten days, rating 1-5
Procedure: as §3, §4

Tomato = conditions: 2500 ppm spray, ten days, rating 1-5
Procedure: as §3, §4

Corn = conditions: 2500 ppm spray, ten days, rating 1-5
Procedure: as §3, §4

Soybean = conditions: 2500 ppm spray, ten days, rating 1-5
Procedure: as §3, §4

[5] = system: bean aphid (Aphis fabae Scop.); test: Bean Aphid Foliage Spray Test; parameters: key: A: excellent control; B: partial control; C: no control; conditions: 500 ppm foliage spray, 24 hours, mortality rating
Procedure: as §1
Bean Aphid Foliage Spray Test
Adults and nymphal stages of the bean aphid (Aphis fabae Scop.) reared on potted dwarf nasturtium plants at 65°-70° F. and 50-70 percent relative humidity, constituted the test insects. For testing purposes, the number of aphids per pot was standardized to 100-150 by trimming plants containing excess aphids.
The test compounds were formulated by diluting the stock suspension with water to give a suspension containing 500 parts of test compound per million parts of final formulation.
The potted plants (one pot per compound tested) infested with 100-150 aphids, were placed on a revolving turntable and sprayed with 100-110 milliliters of test compound formulation by use of a DeVilbiss spray gun set at 40 psig. air pressure. This application, which lasted 25 seconds, was sufficient to wet the plants to run-off. As a control, 100-110 milliliters of a water-acetone-emulsifier solution containing no test compound were also sprayed on infested plants. After spraying, the pots were placed on their sides on a sheet of white standard mimeograph paper which had been previously ruled to facilitate counting. Temperature and humidity in the test room during the 24 hour holding period were 65°-70° F. and 50-70 percent, respectively. Aphids which fell onto the paper and were unable to remain standing after being uprighted were considered dead. Aphids remaining on the plants were observed closely for movement and those which were unable to move the length of the body upon stimulation by prodding were considered dead. Percent mortality was recorded for various concentration levels.
as §2

CN(SN(C)C(=O)Oc1ccccc1C1SCCS1)C(=O)Oc1ccccc1C1SCCS1
Pesticidal Activity, Mite [1]: C
Pesticidal Activity, House fly [2]: A
Pesticidal Activity, Southern Armyworm [3]: A
Pesticidal Activity, Mexican Bean Beetle [4]: A
Phytotoxicity, Bean (Bean): 1
Phytotoxicity, Cotton (Cotton): 1
Phytotoxicity, Tomato (Tomato): 1
Phytotoxicity, Corn (Corn): 1
Phytotoxicity, Soybean (Soybean): 1
Pesticidal Activity, Aphid [5]: A
